25 compounds from patent US9938222B2 (BRISTOL-MYERS SQUIBB COMPANY, priority 2014, dated 2018) can be followed below.

The EC50 is the concentration at which the effect is half-maximal.

In the assay the target is human GPR120 (Homo sapiens (Human), UniProt Q5NUL3). Put plainly: GPR120 pERK AlphaScreen SureFire Assay (human GPR120 pERK assay). Format: cell-based. As to conditions: CHO cells stably transfected with short form of human GPR120. The source says: GPR120 activity was monitored by measuring phosphorylation of ERK (pERK), since G protein receptors are known to activate the ERK signaling cascade either directly and/or through recruitment of arrestin that serves as a scaffold for downstream signaling events.
human GPR120, sequence (Q5NUL3 whole entry): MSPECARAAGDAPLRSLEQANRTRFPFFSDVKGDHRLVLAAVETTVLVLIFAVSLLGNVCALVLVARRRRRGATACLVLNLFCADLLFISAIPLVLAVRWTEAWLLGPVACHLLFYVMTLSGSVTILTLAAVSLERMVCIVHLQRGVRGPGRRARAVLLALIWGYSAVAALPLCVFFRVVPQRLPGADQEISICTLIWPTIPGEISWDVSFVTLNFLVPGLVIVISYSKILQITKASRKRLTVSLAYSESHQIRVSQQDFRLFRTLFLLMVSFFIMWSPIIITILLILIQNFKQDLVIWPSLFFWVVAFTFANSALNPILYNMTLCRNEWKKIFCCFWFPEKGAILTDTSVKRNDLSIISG
GPR120 pERK AlphaScreen SureFire Assay
The human and mouse GPR120-mediated intracellular phosphorylated ERK assays were established using CHOA12 cells stably transfected with the short form of human or mouse GPR120 receptor. Cells were cultured in growth medium consisting of F-12 media (Invitrogen Cat. #11765) with 5% Charcoal/Dextran FBS (Invitrogen Cat. #12676-029), 500 μg/mL GENETICIN® (Life Technologies Cat. #10131-027) and 250 μg/mL Zeocin (Invitrogen Cat. #R250-01). Cells were cryo-preserved at a concentration of 2×10^7 cells/mL, in 90% Charcoal/Dextran FBS and 10% DMSO, and frozen in liquid nitrogen at a low passage number.
For the pERK assay, 2×10^7 cells/mL cryopreserved human and mouse cells were thawed rapidly in a 37° C. water bath and added to a T-225 flask containing 50 mL growth medium. The flasks were placed in a tissue culture incubator overnight (37° C., 5% CO2). The next day, cells were harvested with trypsin (Gibco Cat. #25300-054), resuspended in serum-containing growth medium and counted using a Cellometer and volume adjusted to a concentration of 0.6×10^6 cells/mL. Cells were plated into 384-well clear bottom tissue culture plates (BD Cat. #353962) at 50 μL/well, for a density of 30,000 cells/well using a MULTIDROP® and incubated for 16-18 hours (overnight) at 37° C. with 5% CO2. The next day, cells were serum starved in 30 μL of F-12 media without any serum or antibiotics for 2 hours at 37° C.
Test compounds were 3-fold, 11-point serially diluted in DMSO in a REMP assay plate (Matrix Cat. #4307) by Tecan and 5 μL was transferred into an ECHO source plate (Labcyte Cat. #LC-0200). Cells were then stimulated with 50 nL of compound dilutions using ECHO liquid handler for 7 min at 37° C. Compounds ranged from final assay concentrations of 33.33 μM to 0.56 nM.
The media was then dumped and cells lysed with 20 μL of 1× Lysis buffer from the AlphaScreen SureFire Phospho-ERK 1/2 Kit (Perkin Elmer Cat. #6760617M). The lysis buffer was diluted 5-fold with water before use. The plate was agitated on a shaker for 10 min after which 2 μL was transferred into a 384-well white proxiplate (Perkin Elmer Cat. #6008289). The SureFire assay reagent mix was prepared by mixing 60 parts Reaction Buffer, 10 parts Activation Buffer, 1 part Donor Beads, 1 part Acceptor Beads (Perkin Elmer Cat. #TGRES10K). 3.5 μL/well of this reagent mix was manually added to the proxiplate with a multichannel pipettor. Plates were spun down at 1000 rpm for 2 min, followed by light-protected incubation at room temperature for 2 hours. The plates were read on the Alpha-technology compatible Envision multilabel plate reader using AlphaScreen protocol according to manufacturer's specifications. The agonist effect of compounds was expressed as 100×(average sample-average blank)/(average total-average blank) where sample is the luminescence activity in the presence of test compound, blank is equal to the luminescence activity in the presence of DMSO control and the total is signal induced by 50 μM linolenic acid as reference compound. Activation data for the test compound over a range of concentrations was plotted as percentage activation of the test compound (100%=maximum response). After correcting for background, EC50 values were determined. The EC50 is defined as the concentration of test compound which produces 50% of the maximal response and was quantified using the 4 parameter logistic equation to fit the data.
The human and mouse GPR120-mediated intracellular phosphorylated ERK assays were also established using CHO-K1 cells stably transfected with the short form of human or mouse GPR120 receptor. […]
(Alpha assays give light when donor and acceptor beads are brought close together.)
As to `Cc1cc(-c2ccc(OC[C@@H]3C[C@H]3C(=O)O)cc2)n(-c2ccc(Cl)cc2)n1` (racemic) [Example 82, Trans-2-((4-(1-(4-chlorophenyl)-3-methyl-1H-pyrazol-5-yl)phenoxy)methyl) cyclopropanecarboxylic acid], the response was half-maximal at 4960 nM (EC50). Same read-out and setting: the same measure for `CC(C)Oc1ccc(F)c(-c2ccc(CO[C@@H]3C[C@H]3C(=O)O)cc2)c1` (relative stereo) [Example 37, Trans-2-((2′-fluoro-5′-isopropoxy-[1,1′-biphenyl]-4-yl)methoxy)cyclopropanecarboxylic acid]: 2650 nM; for `Cc1ccc(Oc2ccc(F)c(-c3ccc(OC[C@@H]4C[C@H]4C(=O)O)cc3)c2)cn1` (racemic) [Example 114, Trans-2-(((2′-fluoro-5′-((6-methylpyridin-3-yl)oxy)-[1,1′-biphenyl]-4-yl)oxy)methyl) cyclopropanecarboxylic acid]: 140 nM; for `CC(C)Oc1ccc(F)c(-c2ccc(OC[C@@H]3C[C@H]3C(=O)O)c(F)c2)c1` (racemic) [Example 62, Trans-2-(((2′,3-difluoro-5′-isopropoxy-[1,1′-biphenyl]-4-yl)oxy)methyl) cyclopropanecarboxylic acid]: 310 nM. Regarding `CC1(C)Cc2c(F)cc(-c3ccc(OC[C@@H]4C[C@H]4C(=O)O)cc3)cc2O1` (racemic) [Example 21, Trans-2-((4-(4-fluoro-2,2-dimethyl-2,3-dihydrobenzofuran-6-yl)phenoxy)methyl) cyclopropanecarboxylic acid], the “EC50 (μM)” value is “Not active”.

Turning to `CC(C)Oc1ccc(F)c(-c2ccc(C[C@@H]3C[C@H]3CC(=O)O)cc2)c1` (single isomer, unassigned) [Example 35, Trans-(2-((2′-fluoro-5′-isopropoxy-[1,1′-biphenyl]-4-yl)methyl)cyclopropyl)acetic acid], the midpoint of the response, the EC50, lay at 330 nM.

As to `COc1ccc(OC(F)(F)F)cc1-c1ccc(OC[C@@H]2C[C@H]2C(=O)O)cc1` (racemic) [Example 71, Trans-2-(((2′-methoxy-5′-(trifluoromethoxy)-[1,1′-biphenyl]-4-yl)oxy)methyl)cyclopropanecarboxylic acid], the EC50 worked out at 1430 nM.

In the case of `O=C(O)[C@@H]1C[C@H]1COc1ccc(-c2cnn(Cc3ccccc3)c2)cc1` (racemic) [Example 83, Trans-2-((4-(1-benzyl-1H-pyrazol-4-yl)phenoxy)methyl)cyclopropanecarboxylic acid], a half-maximal effect (EC50) was put at 3050 nM. Consider `O=C(O)[C@@H]1C[C@H]1COc1ccc(-c2cc(Oc3cccc(F)c3)cc(F)c2F)cc1F` (single isomer, unassigned) [Example 106], for which the response was half-maximal at 270 nM (EC50). Same read-out and setting: in the case of `COc1cc(Cl)cc(-c2ccc(CC[C@@H]3C[C@H]3C(=O)O)cc2)c1` (racemic) [Example 77, Trans-2-(2-(3′-chloro-5′-methoxy-[1,1′-biphenyl]-4-yl)ethyl) cyclopropanecarboxylic acid] it was 2340 nM; in that of `COC(=O)c1cccc(-c2ccc(CC[C@@H]3C[C@H]3C(=O)O)cc2)c1` (racemic) [Example 130, Trans-2-(2-(3′-(methoxycarbonyl)-[1,1′-biphenyl]-4-yl)ethyl) cyclopropanecarboxylic acid], 800 nM. The same measure, in the same setting: in the case of `CC(C)Oc1ccc(F)c(-c2ccc(C[C@H]3C[C@H]3CC(=O)O)cc2)c1` (racemic) [Example 34, Cis-2-(2-((2′-fluoro-5′-isopropoxy-[1,1′-biphenyl]-4-yl)methyl)cyclopropyl)acetic acid] it was 430 nM; in that of `CC(C)Oc1ccc(F)c(-c2ccc(OC[C@@H]3C[C@H]3C(=O)O)c(C(F)(F)F)c2)c1` (racemic) [Example 88, Trans-2-(((2′-fluoro-5′-isopropoxy-3-(trifluoromethyl)-[1,1′-biphenyl]-4-yl)oxy)methyl) cyclopropanecarboxylic acid], 180 nM; in that of `COc1cc(OC(C)C)cc(-c2ccc(OC[C@@H]3C[C@H]3C(=O)O)cc2)c1` (racemic) [Example 117, Trans-2-(((3′-isopropoxy-5′-methoxy-[1,1′-biphenyl]-4-yl)oxy)methyl) cyclopropanecarboxylic acid], 1110 nM. On the same count and under the same terms, in the case of `O=C(O)[C@@H]1C[C@H]1COc1ccc(-c2cc(F)cc(Oc3ccccc3)c2)cc1` (racemic) [Example 23, Trans-2-(((3′-fluoro-5′-phenoxy-[1,1′-biphenyl]-4-yl)oxy)methyl)cyclopropanecarboxylic acid] it was 660 nM; in that of `O=C(O)[C@@H]1C[C@H]1CCc1ccc(-c2cccc(Oc3ccccc3)c2)cc1` (racemic) [Example 75, Trans-2-(2-(3′-phenoxy-[1,1′-biphenyl]-4-yl)ethyl) cyclopropanecarboxylic acid], 180 nM. Compound `CC(C)Oc1ccc(F)c(-c2ccc(C[C@H]3C[C@@H]3CC(=O)O)cc2)c1` (single isomer, unassigned) [Example 36, Trans-(2-((2′-fluoro-5′-isopropoxy-[1,1′-biphenyl]-4-yl)methyl)cyclopropyl)acetic acid] gave an EC50 of 60 nM. For `Cc1ccc(Oc2ccc(F)c(-c3ccc(OCC4CC4C(=O)O)c(F)c3)c2)cc1F` (racemic) [Example 100, Trans-2-(((2′,3-difluoro-5′-(3-fluoro-4-methylphenoxy)-[1,1′-biphenyl]-4-yl)oxy)methyl)cyclopropanecarboxylic acid], the EC50 turned out to be 260 nM.

In the case of `O=C(O)[C@@H]1C[C@H]1COc1ccc(-c2cc(Oc3cc(F)cc(F)c3)ccc2F)cc1` (relative stereo) [Example 43, Trans-2-(((5′-(3,5-difluorophenoxy)-2′-fluoro-[1,1′-biphenyl]-4-yl)oxy)methyl)cyclopropanecarboxylic acid], the EC50 was 280 nM. The same measure, in the same setting: the same measure for `CC(C)Oc1ccc(F)c(-c2ccc(OC[C@@H]3C[C@H]3C(=O)O)cc2)c1F` (relative stereo) [Example 127, Trans-2-(((2′,6′-difluoro-3′-isopropoxy-[1,1′-biphenyl]-4-yl)oxy)methyl) cyclopropanecarboxylic acid]: 940 nM. For `CC(C)Oc1cc(Cl)cc(-c2ccc(OC[C@@H]3C[C@H]3C(=O)O)cc2)c1` (racemic) [Example 120, Trans-2-(((3′-chloro-5′-isopropoxy-[1,1′-biphenyl]-4-yl)oxy)methyl) cyclopropanecarboxylic acid], the EC50 came out at 620 nM. Regarding `O=C(c1ccccc1)c1cccc(-c2ccc(OC[C@@H]3C[C@H]3C(=O)O)cc2)c1` (racemic) [Example 118, Trans-2-(((3′-benzoyl-[1,1′-biphenyl]-4-yl)oxy)methyl) cyclopropanecarboxylic acid], the EC50 was found to be 460 nM. Take `CC(C)Oc1ccc(F)c(-c2ccc(C[C@H]3C[C@@H]3CC(=O)O)cc2)c1` (racemic) [Example 33, Trans-2-(2-((2′-fluoro-5′-isopropoxy-[1,1′-biphenyl]-4-yl)methyl)cyclopropyl)acetic acid]: the EC50 is 60 nM. On the same count and under the same terms, the same measure for `COCCc1cc(-c2cc(OC(C)C)ccc2F)ccc1OC[C@@H]1C[C@H]1C(=O)O` (racemic) [Example 89, Trans-2-(((2′-fluoro-5′-isopropoxy-3-(2-methoxyethyl)-[1,1′-biphenyl]-4-yl)oxy)methyl) cyclopropanecarboxylic acid]: 3250 nM. On the same count and under the same terms, the same measure for `COCc1cc(OC(C)C)cc(-c2ccc(OC[C@@H]3C[C@H]3C(=O)O)cc2)c1` (racemic) [Example 86, Trans-2-(((3′-isopropoxy-5′-(methoxymethyl)-[1,1′-biphenyl]-4-yl)oxy)methyl) cyclopropanecarboxylic acid]: 3620 nM.
